# How the values were obtained:
# [1] = Lethal dose against rodents; Range = 1.38e7 nmol/kg; format: toxicity; conditions: rodentia
# [2] = Lethal dose against rodents; Range = 1200-10e4 nmol/kg; format: toxicity; conditions: rodentia
# [3] = target: T1, Neuronal acetylcholine receptor; alpha3/beta4 (Rattus norvegicus, UniProt P04757+P12392); assay: Effective concentration against alpha3-beta4 nicotinic acetylcholine receptor (nAChR) expressed in IMR32 cell; format: cell-based, IMR-32
# [4] = target: Neuronal acetylcholine receptor; alpha4/beta2 (Rattus norvegicus, UniProt P09483+P12390); assay: Displacement of [3H]-cytisine from Alpha4-beta2 Nicotinic acetylcholine receptor of rat brain homogenates; format: tissue-based
# [5] = Lethal dose against rodents; Range = 1.37e5 nmol/kg; format: toxicity; conditions: rodentia
# [6] = target: T1, Neuronal acetylcholine receptor; alpha3/beta4; assay: Effective concentration against alpha3-beta4 Nicotinic acetylcholine receptor (nAChR); format: protein-complex assay
# [7] = Lethal dose against rodents; Range = 7-67 nmol/kg; format: toxicity; conditions: rodentia, in vivo
# [8] = Lethal dose against rodents; Range = 12-120 nmol/kg; format: toxicity; conditions: rodentia, in vivo
# [9] = target: T1, Neuronal acetylcholine receptor; alpha3/beta4; assay: Effective concentration against alpha3-beta4 nicotinic acetylcholine receptor (nAChR) expressed in Xenopus oocytes; format: cell-based, Oocyte
# [10] = target: T1, Neuronal acetylcholine receptor; alpha3/beta4; assay: Displacement of [3H]epibatidine from Alpha3 Beta4 Nicotinic acetylcholine receptor of rat brain homogenates
# [11] = Lethal dose against rodents; Range = 1200-10e4; format: toxicity; conditions: rodentia
# [12] = Lethal dose against rodents; format: toxicity; conditions: rodentia
# T1 sequence (P04757 whole entry): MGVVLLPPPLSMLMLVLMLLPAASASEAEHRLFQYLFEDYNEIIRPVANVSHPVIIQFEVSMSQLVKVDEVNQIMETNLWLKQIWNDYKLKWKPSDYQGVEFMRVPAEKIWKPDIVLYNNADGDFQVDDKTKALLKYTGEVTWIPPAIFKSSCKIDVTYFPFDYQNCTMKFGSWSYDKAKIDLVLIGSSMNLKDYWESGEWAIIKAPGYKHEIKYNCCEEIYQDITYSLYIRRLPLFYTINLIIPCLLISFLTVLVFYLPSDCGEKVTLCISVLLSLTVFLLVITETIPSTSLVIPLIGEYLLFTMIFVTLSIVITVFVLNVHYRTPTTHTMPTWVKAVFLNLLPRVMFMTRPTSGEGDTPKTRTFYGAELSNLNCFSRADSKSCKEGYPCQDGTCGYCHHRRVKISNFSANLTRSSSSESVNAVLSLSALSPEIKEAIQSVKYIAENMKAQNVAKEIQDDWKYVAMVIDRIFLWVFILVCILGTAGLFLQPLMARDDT
# T1 sequence (P12392 whole entry): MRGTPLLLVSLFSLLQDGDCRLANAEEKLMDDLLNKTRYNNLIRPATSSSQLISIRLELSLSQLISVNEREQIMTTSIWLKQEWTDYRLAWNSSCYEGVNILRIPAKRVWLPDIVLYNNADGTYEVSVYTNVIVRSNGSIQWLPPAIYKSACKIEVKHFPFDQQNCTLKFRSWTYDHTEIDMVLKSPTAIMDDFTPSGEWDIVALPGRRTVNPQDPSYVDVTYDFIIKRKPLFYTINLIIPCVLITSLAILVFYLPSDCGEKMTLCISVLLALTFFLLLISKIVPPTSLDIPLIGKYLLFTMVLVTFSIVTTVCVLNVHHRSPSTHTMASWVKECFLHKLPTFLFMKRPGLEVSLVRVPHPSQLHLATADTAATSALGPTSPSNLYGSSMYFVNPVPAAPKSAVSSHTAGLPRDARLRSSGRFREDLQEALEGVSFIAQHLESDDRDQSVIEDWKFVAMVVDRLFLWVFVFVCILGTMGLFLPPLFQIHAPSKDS
# Chain of Neuronal acetylcholine receptor; alpha4/beta2 (P09483 whole entry): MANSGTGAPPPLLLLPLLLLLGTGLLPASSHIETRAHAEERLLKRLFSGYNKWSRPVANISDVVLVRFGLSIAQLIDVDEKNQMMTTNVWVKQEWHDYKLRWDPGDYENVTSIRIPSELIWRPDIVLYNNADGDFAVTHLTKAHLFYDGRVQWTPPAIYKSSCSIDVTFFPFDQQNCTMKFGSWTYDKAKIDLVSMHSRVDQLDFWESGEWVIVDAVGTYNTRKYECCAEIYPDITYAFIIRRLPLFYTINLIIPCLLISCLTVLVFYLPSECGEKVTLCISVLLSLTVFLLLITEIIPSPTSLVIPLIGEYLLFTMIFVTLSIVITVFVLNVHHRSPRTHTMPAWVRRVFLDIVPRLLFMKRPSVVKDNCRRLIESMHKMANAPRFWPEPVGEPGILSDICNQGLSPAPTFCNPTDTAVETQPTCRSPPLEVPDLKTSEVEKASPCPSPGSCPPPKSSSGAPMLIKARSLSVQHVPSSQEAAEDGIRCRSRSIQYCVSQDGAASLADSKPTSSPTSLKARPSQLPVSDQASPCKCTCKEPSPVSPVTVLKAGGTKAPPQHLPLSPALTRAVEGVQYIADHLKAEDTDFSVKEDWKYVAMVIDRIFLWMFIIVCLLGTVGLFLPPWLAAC
# Chain of Neuronal acetylcholine receptor; alpha4/beta2 (P12390 whole entry): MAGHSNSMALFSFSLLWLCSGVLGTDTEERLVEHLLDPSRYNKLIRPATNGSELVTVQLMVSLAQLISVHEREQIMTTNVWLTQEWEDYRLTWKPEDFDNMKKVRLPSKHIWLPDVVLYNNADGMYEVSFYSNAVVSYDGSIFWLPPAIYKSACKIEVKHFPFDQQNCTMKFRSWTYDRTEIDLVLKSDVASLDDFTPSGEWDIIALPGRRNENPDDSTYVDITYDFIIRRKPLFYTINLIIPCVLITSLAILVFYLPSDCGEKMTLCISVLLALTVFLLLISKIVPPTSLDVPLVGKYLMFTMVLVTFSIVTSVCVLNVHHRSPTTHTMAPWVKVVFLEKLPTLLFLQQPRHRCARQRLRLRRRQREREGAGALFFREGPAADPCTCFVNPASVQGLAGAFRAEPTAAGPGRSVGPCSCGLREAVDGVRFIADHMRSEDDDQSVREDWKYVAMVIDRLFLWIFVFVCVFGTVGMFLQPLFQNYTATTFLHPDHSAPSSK
smiles,measurement,setting,value
CC(=O)OCC[N+](C)(C)C [ACETYLCHOLINE],LD50,[1],13800 µmol/kg
CN1CCCC1COc1cccnc1 (configuration not stated),LD50,[2],100 µmol/kg
same,EC50,[3],63000 nM
same,Ki,[4],0.15 nM
Cc1cc([C@@H]2CCCN2C)on1 [ABT-418],LD50,[5],137 µmol/kg
same,EC50,[6],209000 nM
same,Ki,[4],4 nM
Clc1ccc([C@@H]2C[C@H]3CC[C@@H]2N3)cn1 [(+)-EPIBATIDINE],LD50,[7],0.067 µmol/kg
CN1CCCC1COc1ccc(Cl)nn1 (configuration not stated),Ki,[4],29 nM
"c1cncc(C2CC3CCC2N3)c1 (single isomer, unassigned; (-)) [DESCHLOROEPIBATIDINE]",LD50,[8],120 nmol/kg
same,EC50,[9],250 nM
same,Ki,[4],0.015 nM
CN1CCCC1COc1cnccn1 (configuration not stated),Ki,[4],16.3 nM
c1cncc(OCC2CCN2)c1 (configuration not stated),Ki,[10],73.6 nM
same,Ki,[4],0.05 nM
same,LD50,[11],100 µmol/kg
CN1CCCC1COc1ccccn1 (configuration not stated),Ki,[4],495 nM
CN1C2C=C(c3cccnc3)CC1CC2 (configuration not stated),LD50,[12],0.25 µmol/kg
"c1cncc(C2CC3CCC2N3)c1 (single isomer, unassigned; (+)) [DESCHLOROEPIBATIDINE]",LD50,[8]; read-out: LD50,120 nmol/kg
same,EC50,[9],510 nM
same,Ki,[4],0.064 nM
Clc1ccc(C2CC3CCC2N3)cn1 (configuration not stated) [EPIBATIDINE],LD50,[7],0.067 µmol/kg
